The results in this text go back to patent US10206907B2, “Compounds useful for the treatment of degenerative and inflammatory diseases” (GALAPAGOS NV, priority 2008, dated 2019).

Data set [1] has as its target Recombinant human JAK1 catalytic domain (Homo sapiens (Human), UniProt P23458). The experiment in a line: JAK1 inhibition assay. The following applies: semi-quantitative score. The class given is biochemical. The method in brief:
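IC50 values come from dose-response series, with each point expressed as percent inhibition of cpm. Vehicle sets full activity and 10 μM staurosporine sets background. Incorporated radioactivity counted by scintillation after washing with 75 mM phosphoric acid.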

Data set [2] deals with Recombinant human JAK2 catalytic domain (Homo sapiens (Human), UniProt O60674). Briefly: JAK2 inhibition assay. It counts as biochemical. The following applies: semi-quantitative score. The method in brief:
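Activity was taken as vehicle cpm minus cpm with 10 μM staurosporine, and inhibition was expressed on that scale. Incubation was 90 min at 30 °C, followed by acid quench, phosphoric acid washes and Microscint counting. Compounds were tested as dose series to obtain IC50.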

Data set [3] has as its target Recombinant human JAK3 catalytic domain (Homo sapiens (Human), UniProt P52333). The experiment in a line: JAK3 inhibition assay. The class given is biochemical. The following applies: semi-quantitative score. The procedure: Plates were washed 6 times with 300 μL per well of a 75 mM phosphoric acid solution and the bottom of the plates was sealed. 40 μL/well of Microscint-20 was added, the top of the plates was sealed and readout was performed using the Topcount (Perkin Elmer). Kinase activity was calculated by subtracting counts per minute (cpm) obtained in the presence of a positive control inhibitor (10 μM staurosporine) from cpm obtained in the presence of vehicle. The ability of a test compound to inhibit this activity was determined as: Percentage inhibition=((cpm determined for sample with test compound present−cpm determined for sample with positive control inhibitor) divided by (cpm determined in the presence of vehicle−cpm determined for sample with positive control inhibitor))*100%.
Dose dilution series were prepared for the compounds enabling the testing of dose-response effects in the JAK3 assay and the calculation of the IC50 for each compound.

Data set [4] deals with JAK-STAT signalling in HeLa cells. The experiment in a line: JAK-STAT signalling assay (OSM-triggered pSTAT1(2)-luciferase reporter in HeLa cells). The class given is cell-based. The following applies: Homo sapiens; HeLa cells, OSM-triggered pSTAT1(2)-luciferase reporter; read-out: STAT signalling EC50. A digest of the protocol:
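Read-out is oncostatin M–driven pSTAT1(2)-luciferase activity, corrected by co-transfected LacZ β-galactosidase, in transiently transfected HeLa cells cultured overnight at 37 °C, 10% CO2. Inhibition percentages against positive and negative controls were plotted across doses to derive EC50.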

Data set [5] has as its system MMP13 in SW1353 cells. Briefly: OSM/IL-1β signaling assay (MMP13 levels in SW1353 cells).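 Further: secreted MMP13 captured by antibody, activated with APMA and its activity read by fluorescence, inhibition scaled between vehicle-treated triggered wells (0%) and untriggered wells (100%).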 It counts as cell-based. The following applies: Homo sapiens; SW1353 cells, OSM and IL-1β triggered, MMP13 levels 48 hours after triggering; read-out: MMP13 EC50.
Data set [6] is described as follows: Microsomal stability, human liver microsomes. The following applies: percentage of compound remaining after 60 minutes, 3 μM compound. The class given is in vitro ADME. The method in brief:
(§1)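 Percent parent remaining after 60 min was determined by LCMS against a time-zero sample quenched before microsome addition. Incubations ran at 37°C with liver microsomes and a G6PDH-based NADPH-regenerating cofactor mix. Quench was MeOH or ACN (1:1).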
A general note: Microsomes from liver hold many membrane-bound enzymes, among them those of drug oxidation.

Data set [7] is described as follows: Microsomal stability, rat liver microsomes. It counts as in vitro ADME. The following applies: percentage of compound remaining after 60 minutes, 3 μM compound. The method in brief: as §1
Data set [8] is described as follows: Caco2 permeability (bi-directional). The class given is in vitro ADME, human. The following applies: human, pH 7.4; for Papp A→B at 1 h, 10 µM: Caco-2, apical to basolateral, read-out: Papp (A2B); for efflux ratio at 1 h, 10 µM: Caco-2, ratio of PappB>A/PappA>B. A digest of the protocol: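 Compound concentrations in both chambers were measured by LC-MS/MS after 1 h incubation at 37 °C on an orbital shaker. Efflux ratio is PappB>A over PappA>B. Lucifer Yellow (50 μM in donor) confirmed layer integrity, with permeability of ≤100 nm/s required.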
(In general: Caco-2 cells form a polarised layer with tight junctions and transporters.)

Sequence of Recombinant human JAK3 catalytic domain (P52333 781-1124): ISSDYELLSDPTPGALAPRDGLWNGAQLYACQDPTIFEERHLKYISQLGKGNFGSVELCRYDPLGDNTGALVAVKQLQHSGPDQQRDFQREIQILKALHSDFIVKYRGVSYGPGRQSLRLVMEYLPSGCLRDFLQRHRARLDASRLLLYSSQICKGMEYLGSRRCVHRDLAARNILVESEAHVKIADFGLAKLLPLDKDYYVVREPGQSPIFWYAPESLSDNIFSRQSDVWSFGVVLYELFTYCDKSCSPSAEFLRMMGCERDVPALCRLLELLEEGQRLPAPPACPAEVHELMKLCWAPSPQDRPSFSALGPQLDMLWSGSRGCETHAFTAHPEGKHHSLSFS
Sequence of Recombinant human JAK2 catalytic domain (O60674 808-1132): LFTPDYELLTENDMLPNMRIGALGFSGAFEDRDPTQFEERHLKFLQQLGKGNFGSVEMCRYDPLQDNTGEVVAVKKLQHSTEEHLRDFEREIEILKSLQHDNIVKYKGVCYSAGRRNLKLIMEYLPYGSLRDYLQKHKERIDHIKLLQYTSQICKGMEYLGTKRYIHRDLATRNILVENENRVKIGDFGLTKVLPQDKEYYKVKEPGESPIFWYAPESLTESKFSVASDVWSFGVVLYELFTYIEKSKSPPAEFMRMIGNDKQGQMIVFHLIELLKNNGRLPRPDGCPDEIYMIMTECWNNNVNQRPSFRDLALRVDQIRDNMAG
Sequence of Recombinant human JAK1 catalytic domain (P23458 850-1154): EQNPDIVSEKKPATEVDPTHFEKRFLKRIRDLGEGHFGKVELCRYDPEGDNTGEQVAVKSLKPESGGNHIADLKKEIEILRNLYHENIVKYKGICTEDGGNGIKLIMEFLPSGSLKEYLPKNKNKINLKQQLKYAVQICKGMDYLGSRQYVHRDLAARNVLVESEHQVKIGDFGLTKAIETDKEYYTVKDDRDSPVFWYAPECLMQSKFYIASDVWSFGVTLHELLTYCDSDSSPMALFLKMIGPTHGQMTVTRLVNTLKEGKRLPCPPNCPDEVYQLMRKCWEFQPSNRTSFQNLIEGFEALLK

As for `O=C(NCCc1ccccc1)c1ccc(-c2cccc3nc(NC(=O)C4CC4)nn23)cc1` [Compound 87, 4-(2-(cyclopropanecarboxamido)-[1,2,4]triazolo[1,5-a]pyridin-5-yl)-N-phenethylbenzamide], the IC50 was under 100 nM in data set [1], under 100 nM in data set [2] and 101 to 500 nM in data set [3]. In addition, the EC50 fell in the range of 101 to 500 nM in data set [4] and 501 to 1000 nM in data set [5]. In addition, the “Microsomal Stability Human (%)” value in data set [6] is “* (* 0-25)”. Further, in data set [7], the “Microsomal Stability Rat (%)” value is on record as “* (* 0-25)”. In data set [8], the Papp A→B at 1 h, 10 µM worked out at 20.9 ×10⁻⁶ cm/s. The efflux ratio at 1 h, 10 µM in data set [8] came to 1.81.

Turning to `CN(CCc1ccccc1)C(=O)c1ccc(-c2cccc3nc(NC(=O)C4CC4)nn23)cc1` [Compound 96, 4-(2-(cyclopropanecarboxamido)-[1,2,4]triazolo[1,5-a]pyridin-5-yl)-N-methyl-N-phenethylbenzamide], the results for the IC50 in data set [1], in data set [2] and in data set [3] were under 100 nM, under 100 nM and over 1000 nM, respectively. The EC50 in data set [4] and in data set [5] was over 1000 nM throughout. Besides, the “Microsomal Stability Human (%)” value in data set [6] is “* (* 0-25)”. In addition, the “Microsomal Stability Rat (%)” value in data set [7] is “* (* 0-25)”. Further, the Papp A→B at 1 h, 10 µM in data set [8] worked out at 34.6 ×10⁻⁶ cm/s. Besides, in data set [8], the efflux ratio at 1 h, 10 µM stood at 1.

With `O=C(NCCc1ccc(C(F)(F)F)cc1)c1ccc(-c2cccc3nc(NC(=O)C4CC4)nn23)cc1` [Compound 97, 4-(2-(cyclopropanecarboxamido)-[1,2,4]triazolo[1,5-a]pyridin-5-yl)-N-(4-(trifluoromethyl)phenethyl) benzamide], the IC50 in data set [1] was under 100 nM; in data set [2], under 100 nM; in data set [3] it was 101 to 500 nM. Also, the EC50 in data set [4] lay in the range of 101 to 500 nM; in data set [5], 501 to 1000 nM. Also, the “Microsomal Stability Human (%)” value in data set [6] is given as “* (* 0-25)”. The “Microsomal Stability Rat (%)” value in data set [7] is recorded as “** (** 26-50)”. Also, in data set [8], the Papp A→B at 1 h, 10 µM turned out to be 23.8 ×10⁻⁶ cm/s. Further, the efflux ratio at 1 h, 10 µM in data set [8] was 2.61.

Turning to `O=C(Nc1nc2cccc(-c3ccc(OCc4ncon4)cc3)n2n1)C1CC1` [Compound 99, N-(5-(4-((1,2,4-oxadiazol-3-yl)methoxy)phenyl)-[1,2,4]triazolo[1,5-a]pyridin-2-yl)cyclopropanecarboxamide], the IC50 in data set [1] was under 100 nM; in data set [2] it was under 100 nM; in data set [3], 101 to 500 nM. Also, the EC50 in data set [4] lay within 101 to 500 nM; in data set [5], 1 to 500 nM. Besides, the “Microsomal Stability Human (%)” value in data set [6] was “** (** 26-50)”. For the same molecule, the “Microsomal Stability Rat (%)” value in data set [7] was “* (* 0-25)”. The Papp A→B at 1 h, 10 µM in data set [8] came out at 38.9 ×10⁻⁶ cm/s. Also, in data set [8], the efflux ratio at 1 h, 10 µM came to 0.81.

With `O=C(NCCOc1ccccc1)c1ccc(-c2cccc3nc(NC(=O)C4CC4)nn23)c(F)c1` [Compound 100, 4-(2-(cyclopropanecarboxamido)-[1,2,4]triazolo[1,5-a]pyridin-5-yl)-3-fluoro-N-(2-phenoxyethyl)benzamide], the IC50 in data set [1] was under 100 nM; in data set [2], under 100 nM; in data set [3], over 1000 nM. In addition, the EC50 in data set [4] and in data set [5] was over 1000 nM in each case. For the same molecule, the “Microsomal Stability Human (%)” value in data set [6] is reported as “* (* 0-25)”. Besides, in data set [7], the “Microsomal Stability Rat (%)” value was “* (* 0-25)”. The Papp A→B at 1 h, 10 µM in data set [8] was found to be 11.8 ×10⁻⁶ cm/s. The efflux ratio at 1 h, 10 µM in data set [8] stood at 3.23.

In the case of `O=C(Nc1nc2cccc(-c3ccc(NCc4ccccc4)nc3)n2n1)C1CC1` [Compound 104, N-(5-(6-(benzylamino)pyridin-3-yl)-[1,2,4]triazolo[1,5-a]pyridin-2-yl)cyclopropanecarboxamide], the IC50 in data set [1] is under 100 nM; in data set [2] it was 101 to 500 nM; in data set [3], over 1000 nM. Besides, the EC50 in data set [4] and in data set [5] was over 1000 nM in each case. Besides, the “Microsomal Stability Human (%)” value in data set [6] is given as “* (* 0-25)”. Moreover, the “Microsomal Stability Rat (%)” value in data set [7] is reported as “* (* 0-25)”. In addition, the Papp A→B at 1 h, 10 µM in data set [8] worked out at 28 ×10⁻⁶ cm/s. In addition, the efflux ratio at 1 h, 10 µM in data set [8] turned out to be 0.9.

Turning to `O=C(Nc1nc2cccc(-c3cnn(Cc4ccccc4)c3)n2n1)C1CC1` [Compound 107, N-(5-(1-benzyl-1H-pyrazol-4-yl)-[1,2,4]triazolo[1,5-a]pyridin-2-yl)cyclopropanecarboxamide], the values for the IC50 in data set [1], in data set [2] and in data set [3] were under 100 nM, under 100 nM and over 1000 nM, respectively. The EC50 in data set [4] and in data set [5] was over 1000 nM each time. For the same molecule, the “Microsomal Stability Human (%)” value in data set [6] is reported as “* (* 0-25)”. For the same molecule, the “Microsomal Stability Rat (%)” value in data set [7] is recorded as “* (* 0-25)”. Besides, the Papp A→B at 1 h, 10 µM in data set [8] came to 24.1 ×10⁻⁶ cm/s. Moreover, the efflux ratio at 1 h, 10 µM in data set [8] is 1.05.

As to `O=C(CCOc1ccccc1)Nc1ccc(-c2cccc3nc(NC(=O)C4CC4)nn23)cc1` [Compound 108], the IC50 in data set [1] is under 100 nM; in data set [2] it was under 100 nM; in data set [3], over 1000 nM. Besides, the EC50 in data set [4] and in data set [5] was 501 to 1000 nM throughout. In data set [6], the “Microsomal Stability Human (%)” value was “* (* 0-25)”. Moreover, in data set [7], the “Microsomal Stability Rat (%)” value is recorded as “* (* 0-25)”. The Papp A→B at 1 h, 10 µM in data set [8] is 27.7 ×10⁻⁶ cm/s. In data set [8], the efflux ratio at 1 h, 10 µM was determined as 1.4.

Turning to `O=C(Nc1nc2cccc(-c3ccc(CN4CCC(F)(F)CC4)cc3)n2n1)C1CC1` [Compound 234, Cyclopropanecarboxylic acid {5-[4-(4,4-difluoro-piperidin-1-ylmethyl)-phenyl]-[1,2,4]triazolo[1,5-a]pyridin-2-yl}-amide], the IC50 in data set [1] was under 100 nM; in data set [2] it was under 100 nM; in data set [3], 101 to 500 nM. Moreover, the EC50 fell in the range of 501 to 1000 nM in data set [4] and 1 to 500 nM in data set [5]. The “Microsomal Stability Human (%)” value in data set [6] is listed as “** (** 26-50)”. The “Microsomal Stability Rat (%)” value in data set [7] is “** (** 26-50)”. For the same molecule, in data set [8], the Papp A→B at 1 h, 10 µM stood at 36.5 ×10⁻⁶ cm/s. Further, the efflux ratio at 1 h, 10 µM in data set [8] was found to be 0.9.

For the molecule `O=C(Nc1nc2cccc(-c3ccc(CN4CCC(C(F)(F)F)CC4)cc3)n2n1)C1CC1` [Compound 240, Cyclopropanecarboxylic acid {5-[4-(4-trifluoromethyl-piperidin-1-ylmethyl)-phenyl]-[1,2,4]triazolo[1,5-a]pyridin-2-yl}-amide], the values for the IC50 in data set [1], in data set [2] and in data set [3] were under 100 nM, under 100 nM and 501 to 1000 nM, respectively. In addition, the EC50 is 101 to 500 nM in data set [4] and over 1000 nM in data set [5]. Besides, in data set [6], the “Microsomal Stability Human (%)” value was “** (** 26-50)”. The “Microsomal Stability Rat (%)” value in data set [7] is “*** (*** 51-75)”. For the same molecule, in data set [8], the Papp A→B at 1 h, 10 µM is 29.6 ×10⁻⁶ cm/s. Further, in data set [8], the efflux ratio at 1 h, 10 µM came to 1.3.

As usually defined, the IC50 is the concentration that gives 50% inhibition. The term EC50 denotes the midpoint of the concentration-response curve. What is called efflux ratio is a quotient of directional permeabilities that is used to spot active efflux.
